Reference: patent US7825126B2 (The United States of America as represented by the …, priority 2004, dated 2010)
Like-named read-outs stand apart in the source and are kept apart here.

What was measured:
[1] = target: T1, human A2A receptors (Homo sapiens, UniProt P29274); assay: Binding at human A2A adenosine receptor ([3H]CGS21680, HEK-293 cell membranes); conditions: [3H]CGS 21680; for Ki: mean ± s.e.m., n = 3-5, read-out: Ki(hA2AAR)
T1 construct: expressed in transfected cells
Protocol: (§1) Binding assays at the A1 and A2A receptors. […] Reaction was terminated by filtration with GF/B filters.
(§2) Statistical analysis Binding and functional parameters were calculated using Prism 5.0 software (GraphPAD, San Diego, Calif., USA). IC50 values obtained from competition curves were converted to Ki values using the Cheng-Prusoff equation.

[2] = target: T2, human A2B adenosine receptor (hA2BAR) (Homo sapiens, UniProt P29275); assay: Activation of human A2B adenosine receptor at 10 μM; assay type: cell-based; conditions: CHO cells
T2 sequence (P29275 1-332): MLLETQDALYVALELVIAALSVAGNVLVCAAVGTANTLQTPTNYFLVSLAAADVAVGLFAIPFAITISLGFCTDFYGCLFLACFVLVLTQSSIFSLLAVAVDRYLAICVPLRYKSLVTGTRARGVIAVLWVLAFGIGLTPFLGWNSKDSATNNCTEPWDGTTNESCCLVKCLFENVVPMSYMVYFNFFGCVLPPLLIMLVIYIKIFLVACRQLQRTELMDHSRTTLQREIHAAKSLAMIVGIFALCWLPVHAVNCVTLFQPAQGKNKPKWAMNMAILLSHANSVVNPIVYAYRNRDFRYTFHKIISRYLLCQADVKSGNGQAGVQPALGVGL

[3] = target: T3, human A1 receptors (Homo sapiens, UniProt P30542); assay: Binding at human A1 adenosine receptor ([3H]R-PIA, CHO cell membranes); conditions: for Ki: mean ± s.e.m., n = 3-5, read-out: Ki(hA1AR)
T3 construct: expressed in transfected cells
T3 sequence (P30542 1-326): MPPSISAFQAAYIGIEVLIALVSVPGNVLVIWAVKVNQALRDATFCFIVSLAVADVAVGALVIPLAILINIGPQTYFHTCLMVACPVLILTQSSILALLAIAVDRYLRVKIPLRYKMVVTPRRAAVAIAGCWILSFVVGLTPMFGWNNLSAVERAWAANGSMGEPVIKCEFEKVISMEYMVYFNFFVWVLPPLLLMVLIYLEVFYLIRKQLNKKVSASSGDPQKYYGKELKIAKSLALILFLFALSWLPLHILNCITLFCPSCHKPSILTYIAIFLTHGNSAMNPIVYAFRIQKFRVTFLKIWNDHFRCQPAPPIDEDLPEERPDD
Protocol: as §1, §2

[4] = target: T4, human A3 adenosine receptor (Homo sapiens, UniProt P0DMS8); assay: Cyclic AMP accumulation assay (inhibition of forskolin-stimulated cAMP), CHO cells expressing human A3 adenosine receptor; conditions: 10 μM, relative to 10 μM Cl-IB-MECA
T4 sequence (P0DMS8 1-318): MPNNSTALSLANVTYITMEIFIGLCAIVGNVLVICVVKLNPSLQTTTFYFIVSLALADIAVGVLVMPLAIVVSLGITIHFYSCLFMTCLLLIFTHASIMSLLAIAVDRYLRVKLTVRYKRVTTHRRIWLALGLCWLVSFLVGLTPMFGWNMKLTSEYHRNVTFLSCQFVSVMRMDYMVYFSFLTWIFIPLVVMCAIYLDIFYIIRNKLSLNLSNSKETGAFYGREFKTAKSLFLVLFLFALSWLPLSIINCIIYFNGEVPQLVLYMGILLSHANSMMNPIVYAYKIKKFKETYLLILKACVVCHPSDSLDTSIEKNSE
Protocol: The cyclic AMP accumulation assay was performed as follows. Intracellular cyclic AMP levels were measured with a competitive protein binding method. […] After centrifugation and resuspension in medium, cells were plated in 24-well plates in 1.0 ml medium. […] The reaction was terminated by removing the supernatant, and cells were lysed upon the addition of 200 μL of 0.1 M ice-cold HCl. The cell lysate was resuspended and stored at −20° C. For determination of cyclic AMP production, protein kinase A (PKA) was incubated with [^3H]cyclic AMP (2 nM) in K2HPO4/EDTA buffer (K2HPO4, 150 mM; EDTA, 10 mM), 20 μL of the cell lysate, and 30 μL 0.1 M HCl or 50 μL of cyclic AMP solution (0-16 pmol/200 μL for standard curve). Bound radioactivity was separated by rapid filtration through Whatman GF/C filters and washed once with cold buffer. Bound radioactivity was measured by liquid scintillation spectrometry.
Forskolin (10 μM) was used to stimulate cyclic AMP levels.

[5] = target: T4, human A3 adenosine receptor; parameters: expressed in transfected cells; host or cells: CHO cells; conditions: relative to 10 μM Cl-IB-MECA, data from literature (footnotes c, d, e, f); cited from earlier work
[6] = target: T4, human A3 adenosine receptor; assay: Binding at human A3 adenosine receptor ([125I]I-AB-MECA, CHO cell membranes); parameters: expressed in transfected cells; host or cells: CHO cells; conditions: [125I]I-AB-MECA; mean ± s.e.m., n = 3-5; read-out: Ki(hA3AR)
Protocol: Striatal and forebrain tissues from Wistar rats were homogenized in ice-cold 50 mM Tris-HCl buffer, pH 7.4, using an electric homogenizer. The homogenate was centrifuged at 20,000 g for 10 min at 4° C., and the pellet was washed in fresh buffer. The final pellet was stored at −80° C. until the binding experiments. The protein concentration was measured using the Bradford assay. […] The mixtures were incubated at 37° C. for 60 min. […] Filters were washed three times with 9 ml ice-cold buffer. Radioactivity was determined in a Beckman 5500B γ-counter. Statistical analysis Binding and functional parameters were calculated using Prism 5.0 software (GraphPAD, San Diego, Calif., USA). IC50 values obtained from competition curves were converted to Ki values using the Cheng-Prusoff equation.

T1 sequence (P29274 whole entry): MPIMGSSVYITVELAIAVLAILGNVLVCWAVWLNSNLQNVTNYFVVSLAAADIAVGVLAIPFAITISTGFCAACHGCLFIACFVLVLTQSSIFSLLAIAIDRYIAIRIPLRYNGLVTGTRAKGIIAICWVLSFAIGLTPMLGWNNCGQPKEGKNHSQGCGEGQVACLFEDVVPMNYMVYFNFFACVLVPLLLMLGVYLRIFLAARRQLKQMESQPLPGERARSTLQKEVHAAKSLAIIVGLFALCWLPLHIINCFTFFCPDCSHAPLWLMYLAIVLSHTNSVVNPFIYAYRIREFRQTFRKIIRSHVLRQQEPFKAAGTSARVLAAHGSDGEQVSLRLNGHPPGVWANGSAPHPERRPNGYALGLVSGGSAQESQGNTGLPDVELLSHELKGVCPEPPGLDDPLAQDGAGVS

Compound | Ki [1] [nM] | % Activation (hA2BAR) at 10 μM [2] [%] | % displ. at 10 μM (hA2AAR) [1] [%] | also measured
CNC(=O)[C@@]12C[C@@H]1[C@@H](n1cnc3c(N[C@@H]4C[C@H]4c4ccccc4)nc(Cl)nc31)[C@H](O)[C@@H]2O (relative stereo) [Compound 33, (1′S,2′R,3′S,4′R,5′S)-(4′-{2-chloro-6-[(trans-2-phenylcyclopropyl)amino]purin-9-yl}-2′,3′-dihydroxybicyclo[3.1.0]hexyl)-N-methylcarboxamide] | 4800 ± 200 | 48 | – | –
CNC(=O)[C@@]12C[C@@H]1[C@@H](n1cnc3c(NCc4cccc(I)c4)nc(Cl)nc31)[C@H](O)[C@@H]2O [Compound 4, reference compound] | 1600 ± 400 | – | – | Ki [3]: 65 ± 17 nM; % Activation (hA3AR) at 10 μM [4]: 3 ± 2%
OC[C@H]1O[C@@H](n2cnc3c(NCc4cccc(Cl)c4)ncnc32)[C@H](O)[C@@H]1O [Compound 8, reference compound] | 1400 ± 200 | – | – | Ki [3]: 20 ± 3 nM; % Activation (hA3AR) at 10 μM [5]: 80 ± 3^d %
CNC(=O)[C@@]12C[C@@H]1[C@H](n1cnc3c(NC)nc(N)nc31)[C@H](O)[C@@H]2O [Compound 15, (1′S,2′R,3′S,4′S,5′S)-4′-[6-Methylamino-2-amino-purin-9-yl]-2′,3′-dihydroxy-bicyclo[3.1.0]hexane-1′-carboxylic acid methylamide] | – | – | 17 | –
CNC(=O)[C@@]12C[C@@H]1[C@@H](n1cnc3c(NCc4cccc(I)c4)ncnc31)[C@H](O)[C@@H]2O [Compound 16] | 6200 ± 100 | – | – | Ki [3]: 700 ± 270 nM; % Activation (hA3AR) at 10 μM [5]: 100^e %
CNC(=O)C12CC1C(n1cnc3c(NCc4cccc(F)c4)nc(Cl)nc31)C(O)C2O (stereo not drawn) [Compound 19, (1′S,2′R,3′S,4′S,5′S)-4′-[6-(3-Fluorobenzylamino)-2-chloro-purin-9-yl]-2′,3′-dihydroxy-bicyclo[3.1.0]hexane-1′-carboxylic acid methylamide] | 5100 ± 200 | 28 | – | –
CNC(=O)[C@@]12C[C@@H]1[C@H](n1cnc3c(NCc4cc(Cl)ccc4Cl)nc(Cl)nc31)[C@H](O)[C@@H]2O [Compound 20, (1′S,2′R,3′S,4′S,5′S)-4′-[6-(2,5-Dichlorobenzylamino)-2-chloro-purin-9-yl]-2′,3′-dihydroxy-bicyclo[3.1.0]hexane-1′-carboxylic acid methyl amide] | 1300 ± 100 | 32 | – | –
CNC(=O)C12CC1C(n1cnc3c(NCc4cc(I)ccc4Cl)nc(Cl)nc31)C(O)C2O (stereo not drawn) [Compound 21, (1′S,2′R,3′S,4′S,5′S)-4′-[6-(2-Chloro-5-iodo-benzylamino)-2-chloro-purin-9-yl]-2′,3′-dihydroxy-bicyclo[3.1.0]hexane-1′-carboxylic acid methylamide] | 480 ± 20 | 58 | – | –
CNC(=O)C12CC1C(n1cnc3c(NCc4cc(Cl)ccc4OC)nc(Cl)nc31)C(O)C2O (stereo not drawn) [Compound 22, (1′S,2′R,3′S,4′S,5′S)-4′-[6-(5-Chloro-2-methoxy-benzylamino)-2-chloro-purin-9-yl]-2′,3′-dihydroxy-bicyclo[3.1.0]hexane-1′-carboxylic acid methylamide] | 1200 ± 100 | 37 | – | –
CNC(=O)C12CC1C(n1cnc3c(NCc4cc(Cl)ccc4OCC(N)=O)nc(Cl)nc31)C(O)C2O (stereo not drawn) [Compound 23, (1′S,2′R,3′S,4′S,5′S)-4′-[6-(5-Chloro-2-(aminocarbonylmethyloxy)-benzylamino)-2-chloro-purin-9-yl]-2′,3′-dihydroxy-bicyclo[3.1.0]hexane-1′-carboxylic acid methylamide] | 800 ± 70 | – | – | –
CNC(=O)C12CC1C(n1cnc3c(NCc4cc(I)ccc4OC)nc(Cl)nc31)C(O)C2O (stereo not drawn) [Compound 25, (1′S,2′R,3′S,4′S,5′S)-4′-[6-(5-Iodo-2-methoxy-benzylamino)-2-chloro-purin-9-yl]-2′,3′-dihydroxy-bicyclo[3.1.0]hexane-1′-carboxylic acid methylamide] | 430 ± 30 | 46 | – | –
CNC(=O)C12CC1C(n1cnc3c(NCc4ccccc4C)nc(Cl)nc31)C(O)C2O (stereo not drawn) [Compound 27, (1′S,2′R,3′S,4′S,5′S)-4′-[6-(2-Methyl-benzylamino)-2-chloro-purin-9-yl]-2′,3′-dihydroxy-bicyclo[3.1.0]hexane-1′-carboxylic acid methylamide] | 3800 ± 200 | 24 | – | –
CNC(=O)C12CC1C(n1cnc3c(NCc4cccc(C)c4)nc(Cl)nc31)C(O)C2O (stereo not drawn) [Compound 28, (1′S,2′R,3′S,4′S,5′S)-4′-[6-(3-Methyl-benzylamino)-2-chloro-purin-9-yl]-2′,3′-dihydroxy-bicyclo[3.1.0]hexane-1′-carboxylic acid methylamide] | 3700 ± 600 | 46 | – | –
CNC(=O)C12CC1C(n1cnc3c(NCc4cccc(C#CCO)c4)nc(Cl)nc31)C(O)C2O (stereo not drawn) [Compound 29, (1′S,2′R,3′S,4′S,5′S)-4′-[6-(3-(3-Hydroxypropynyl)-benzylamino)-2-chloro-purin-9-yl]-2′,3′-dihydroxy-bicyclo[3.1.0]hexane-1′-carboxylic acid methylamide] | – | 28 | 56 | –
CNC(=O)C12CC1C(n1cnc3c(NCc4cc(C#CCO)ccc4Cl)nc(Cl)nc31)C(O)C2O (stereo not drawn) [Compound 30, (1′S,2′R,3′S,4′S,5′S)-4′-[6-(2-Chloro-5-(3-hydroxypropynyl)-benzylamino)-2-chloro-purin-9-yl]-2′,3′-dihydroxy-bicyclo[3.1.0]hexane-1′-carboxylic acid methylamide] | – | 6 | 12 | % displ. at 10 μM (hA1AR) ([3]; 10 μM): 14%; Ki [6]: 217 ± 27 nM; % Activation (hA3AR) at 10 μM [4]: 108 ± 5%
CNC(=O)C12CC1C(n1cnc3c(NCc4ccc(N)cc4)nc(Cl)nc31)C(O)C2O (stereo not drawn) [Compound 31a, (1′S,2′R,3′S,4′S,5′S)-4′-[6-(4-Amino-benzylamino)-2-chloro-purin-9-yl]-2′,3′-dihydroxy-bicyclo[3.1.0]hexane-1′-carboxylic acid methylamide] | – | 22 | 28 | –
CNC(=O)[C@@]12C[C@@H]1[C@@H](n1cnc3c(NCc4ccc(N)c(I)c4)nc(Cl)nc31)[C@H](O)[C@@H]2O [Compound 31b] | 1100 ± 100 | – | – | –
CNC(=O)C12CC1C(n1cnc3c(NCc4cccnc4)nc(Cl)nc31)C(O)C2O (stereo not drawn) [Compound 32, (1′S,2′R,3′S,4′S,5′S)-4′-[6-(3-Pyridylmethylamino)-2-chloro-purin-9-yl]-2′,3′-dihydroxy-bicyclo[3.1.0]hexane-1′-carboxylic acid methylamide] | – | 4 | 33 | –
CCOC(=O)[C@@]12C[C@@H]1[C@H](n1cnc3c(NCc4cccc(Cl)c4)nc(I)nc31)[C@H](O)[C@@H]2O [Compound 35, (1′S,2′R,3′S,4′S,5′S)-4′-[6-(3-Chlorobenzylamino)-2-iodo-purin-9-yl]-2′,3′-dihydroxy-bicyclo[3.1.0]hexane-1′-carboxylic acid ethyl ester] | – | – | 43 | –
CNC(=O)C12CC1C(n1cnc3c(NCc4cccc(Cl)c4)nc(SC)nc31)C(O)C2O (stereo not drawn) [Compound 36] | – | – | 52 | % Activation (hA3AR) at 10 μM [4]: 100 ± 4%
